{"source": "patent US12391664B2", "about": "“GluN2C/D subunit selective antagonists of the N-methyl-D-aspartate receptor” (Emory University, priority 2018, dated 2025)", "key": {"[1]": {"molecular_target": "T1, recombinant rat GluN1/GluN2A (Rattus norvegicus, UniProt Q00959)", "T1 construct": "expressed in transfected cells; host or cells: Xenopus laevis oocytes injected with cRNA (GluN1:GluN2 ratio 1:2)", "T1 sequence (Q00959 23-1464, other chains not shown)": "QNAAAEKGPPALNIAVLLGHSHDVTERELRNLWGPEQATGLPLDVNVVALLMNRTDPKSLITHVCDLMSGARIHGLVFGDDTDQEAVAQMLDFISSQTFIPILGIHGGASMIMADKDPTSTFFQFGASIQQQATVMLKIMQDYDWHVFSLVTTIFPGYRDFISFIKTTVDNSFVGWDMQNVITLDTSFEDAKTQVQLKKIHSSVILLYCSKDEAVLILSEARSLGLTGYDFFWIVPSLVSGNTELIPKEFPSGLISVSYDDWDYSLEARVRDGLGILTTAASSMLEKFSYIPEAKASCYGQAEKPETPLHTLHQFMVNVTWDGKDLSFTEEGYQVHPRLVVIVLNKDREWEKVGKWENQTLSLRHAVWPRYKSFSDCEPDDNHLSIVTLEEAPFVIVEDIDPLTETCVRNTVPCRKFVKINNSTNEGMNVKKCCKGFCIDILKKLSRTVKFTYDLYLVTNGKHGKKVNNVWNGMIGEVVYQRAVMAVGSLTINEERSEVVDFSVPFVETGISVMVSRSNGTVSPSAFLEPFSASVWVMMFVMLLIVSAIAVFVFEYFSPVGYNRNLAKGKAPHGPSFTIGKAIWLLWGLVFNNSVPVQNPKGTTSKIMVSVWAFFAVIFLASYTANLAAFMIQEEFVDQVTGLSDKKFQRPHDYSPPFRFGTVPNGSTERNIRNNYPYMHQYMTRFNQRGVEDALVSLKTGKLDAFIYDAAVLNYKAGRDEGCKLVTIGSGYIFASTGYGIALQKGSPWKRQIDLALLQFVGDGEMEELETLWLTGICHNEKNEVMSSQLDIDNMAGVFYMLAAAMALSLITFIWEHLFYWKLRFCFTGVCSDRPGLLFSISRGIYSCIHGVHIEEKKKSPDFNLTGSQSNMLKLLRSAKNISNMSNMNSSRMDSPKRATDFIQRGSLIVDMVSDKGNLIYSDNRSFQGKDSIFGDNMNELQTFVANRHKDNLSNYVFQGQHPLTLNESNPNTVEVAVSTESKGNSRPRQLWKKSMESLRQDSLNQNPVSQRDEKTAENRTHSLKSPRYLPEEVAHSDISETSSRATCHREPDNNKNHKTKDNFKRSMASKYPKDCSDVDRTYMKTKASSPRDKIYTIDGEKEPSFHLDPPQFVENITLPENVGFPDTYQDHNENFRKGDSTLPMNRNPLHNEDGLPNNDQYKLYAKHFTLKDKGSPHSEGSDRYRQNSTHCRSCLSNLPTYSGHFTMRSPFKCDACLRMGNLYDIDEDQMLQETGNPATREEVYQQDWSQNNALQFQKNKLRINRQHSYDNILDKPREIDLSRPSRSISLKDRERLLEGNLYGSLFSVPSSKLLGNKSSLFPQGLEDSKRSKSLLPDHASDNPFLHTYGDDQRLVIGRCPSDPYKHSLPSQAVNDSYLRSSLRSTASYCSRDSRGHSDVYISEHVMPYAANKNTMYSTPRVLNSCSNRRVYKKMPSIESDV", "experiment": "Two-electrode voltage-clamp recordings in Xenopus laevis oocytes, GluN2A", "format": "cell-based", "conditions": "oocytes, 100 μM glutamate and 30 μM glycine", "outline": "(§1)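 Oocytes injected with rat GluN1/GluN2 cRNA (1:2), held 2–5 days at 15–17 °C, clamped at −40 mV in Ba2+-containing recording solution, pH 7.4, 23 °C. Compounds applied (up to 100 μM) with 100 μM glutamate plus 30 μM glycine. IC50 and Hill slope from concentration-response fits of averaged current inhibition.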"}, "[2]": {"molecular_target": "T2, recombinant rat GluN1/GluN2B (Rattus norvegicus, UniProt Q00960)", "T2 construct": "expressed in transfected cells; host or cells: Xenopus laevis oocytes injected with cRNA (GluN1:GluN2 ratio 1:2)", "experiment": "Two-electrode voltage-clamp recordings in Xenopus laevis oocytes, GluN2B", "format": "cell-based", "conditions": "oocytes, 100 μM glutamate and 30 μM glycine", "outline": "as §1"}, "[3]": {"molecular_target": "T3, recombinant rat GluN1/GluN2C (Rattus norvegicus, UniProt Q00961)", "T3 construct": "expressed in transfected cells; host or cells: Xenopus laevis oocytes injected with cRNA (GluN1:GluN2 ratio 1:2)", "T3 sequence (Q00961 20-1237, other chains not shown)": "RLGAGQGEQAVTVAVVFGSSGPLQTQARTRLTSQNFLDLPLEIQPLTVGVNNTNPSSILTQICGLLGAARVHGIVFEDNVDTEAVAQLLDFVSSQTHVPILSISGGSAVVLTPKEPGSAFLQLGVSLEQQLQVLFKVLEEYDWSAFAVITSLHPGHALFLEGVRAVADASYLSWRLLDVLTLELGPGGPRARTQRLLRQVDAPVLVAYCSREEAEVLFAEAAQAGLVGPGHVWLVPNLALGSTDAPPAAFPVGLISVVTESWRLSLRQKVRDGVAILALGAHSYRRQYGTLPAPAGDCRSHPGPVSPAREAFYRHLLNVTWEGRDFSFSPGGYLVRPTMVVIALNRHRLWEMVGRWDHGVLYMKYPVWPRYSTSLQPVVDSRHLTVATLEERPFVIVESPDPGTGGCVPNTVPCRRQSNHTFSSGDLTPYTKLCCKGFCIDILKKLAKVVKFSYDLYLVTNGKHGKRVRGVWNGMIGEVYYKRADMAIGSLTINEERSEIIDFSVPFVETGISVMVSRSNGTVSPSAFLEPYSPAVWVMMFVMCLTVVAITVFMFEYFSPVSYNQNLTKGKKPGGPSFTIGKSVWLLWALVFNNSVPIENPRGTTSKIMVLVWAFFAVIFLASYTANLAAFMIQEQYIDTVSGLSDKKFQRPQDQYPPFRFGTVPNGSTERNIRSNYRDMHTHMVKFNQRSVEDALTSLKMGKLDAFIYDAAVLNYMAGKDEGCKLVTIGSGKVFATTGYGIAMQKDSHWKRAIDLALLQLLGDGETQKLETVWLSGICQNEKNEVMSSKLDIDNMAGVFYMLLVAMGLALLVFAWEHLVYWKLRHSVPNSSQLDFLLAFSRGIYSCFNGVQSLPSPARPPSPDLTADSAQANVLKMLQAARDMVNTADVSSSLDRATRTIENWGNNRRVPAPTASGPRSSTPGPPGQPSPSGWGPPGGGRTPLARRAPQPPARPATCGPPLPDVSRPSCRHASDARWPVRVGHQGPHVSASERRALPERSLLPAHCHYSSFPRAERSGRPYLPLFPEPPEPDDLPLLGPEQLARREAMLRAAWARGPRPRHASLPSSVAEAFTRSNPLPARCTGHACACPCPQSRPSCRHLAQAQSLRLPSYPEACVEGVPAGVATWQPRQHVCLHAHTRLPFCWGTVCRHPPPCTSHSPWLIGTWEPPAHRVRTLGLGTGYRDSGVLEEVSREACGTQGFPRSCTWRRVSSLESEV", "experiment": "Two-electrode voltage-clamp recordings in Xenopus laevis oocytes, GluN2C", "format": "cell-based", "conditions": "oocytes, 100 μM glutamate and 30 μM glycine", "outline": "as §1"}, "[4]": {"molecular_target": "T4, recombinant rat GluN1/GluN2D (Rattus norvegicus, UniProt Q62645)", "T4 construct": "expressed in transfected cells; host or cells: Xenopus laevis oocytes injected with cRNA (GluN1:GluN2 ratio 1:2)", "T4 sequence (Q62645 28-1323, other chains not shown)": "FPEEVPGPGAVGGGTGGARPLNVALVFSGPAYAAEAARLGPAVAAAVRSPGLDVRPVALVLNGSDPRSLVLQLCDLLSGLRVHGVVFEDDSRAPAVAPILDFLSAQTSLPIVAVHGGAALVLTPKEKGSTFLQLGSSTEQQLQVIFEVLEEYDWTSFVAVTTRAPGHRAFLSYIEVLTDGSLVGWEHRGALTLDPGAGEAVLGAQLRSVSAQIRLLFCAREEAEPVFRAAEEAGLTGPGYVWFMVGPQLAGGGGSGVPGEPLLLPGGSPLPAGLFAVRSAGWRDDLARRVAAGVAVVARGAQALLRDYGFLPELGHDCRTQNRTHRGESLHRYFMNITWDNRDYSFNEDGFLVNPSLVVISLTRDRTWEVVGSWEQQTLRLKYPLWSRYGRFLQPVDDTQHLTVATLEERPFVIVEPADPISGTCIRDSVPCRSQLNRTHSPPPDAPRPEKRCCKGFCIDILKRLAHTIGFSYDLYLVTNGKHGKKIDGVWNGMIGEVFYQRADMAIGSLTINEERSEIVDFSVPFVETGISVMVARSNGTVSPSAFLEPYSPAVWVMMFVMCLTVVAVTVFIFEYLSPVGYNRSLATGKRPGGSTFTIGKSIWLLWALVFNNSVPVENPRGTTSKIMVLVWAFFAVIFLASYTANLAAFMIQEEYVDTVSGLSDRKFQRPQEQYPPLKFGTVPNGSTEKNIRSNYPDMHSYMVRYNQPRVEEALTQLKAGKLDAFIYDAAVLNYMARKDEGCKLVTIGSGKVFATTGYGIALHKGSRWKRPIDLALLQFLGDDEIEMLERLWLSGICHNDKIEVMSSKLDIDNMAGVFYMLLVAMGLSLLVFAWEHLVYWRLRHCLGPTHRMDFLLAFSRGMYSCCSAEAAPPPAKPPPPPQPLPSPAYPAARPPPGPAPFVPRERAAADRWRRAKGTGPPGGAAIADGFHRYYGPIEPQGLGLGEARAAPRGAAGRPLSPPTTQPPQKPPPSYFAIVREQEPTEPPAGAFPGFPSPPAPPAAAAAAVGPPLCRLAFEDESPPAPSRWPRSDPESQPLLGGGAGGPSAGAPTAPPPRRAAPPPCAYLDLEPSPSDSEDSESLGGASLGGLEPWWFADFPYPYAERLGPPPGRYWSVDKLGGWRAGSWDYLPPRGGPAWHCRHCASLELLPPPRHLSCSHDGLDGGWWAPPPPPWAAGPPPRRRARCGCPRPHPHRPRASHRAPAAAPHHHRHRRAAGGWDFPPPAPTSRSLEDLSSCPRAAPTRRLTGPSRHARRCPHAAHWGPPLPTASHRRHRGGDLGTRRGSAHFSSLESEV", "experiment": "Two-electrode voltage-clamp recordings in Xenopus laevis oocytes, GluN2D", "format": "cell-based", "conditions": "oocytes, 100 μM glutamate and 30 μM glycine", "outline": "as §1"}, "[5]": {"tested_on": "recombinant GluN2A-D subunits", "experiment": "Two-electrode voltage-clamp recordings, statements on all receptors", "format": "cell-based, rat", "method": "All target compounds were evaluated for activity by the Traynelis laboratory at Emory University using two-electrode voltage-clamp recordings performed in Xenopus laevis oocytes expressing recombinant GluN2A-D subunits (Table 1). […] Two ester compounds 997-65 and 997-66 also performed no inhibition at GluN2A to GluN2D receptors. […] Consequently, for the compounds that Acker et al. already published, it was necessary to increase the concentration to 100 μM when collecting data for a concentration effect curve. […] Therefore, under this condition, we can only conclude that compound 997-67 remained potent at GluN2C/D-containing receptors, but its selectivity over GluN2A- and GluN2B-containing receptors could not be compared to 997-57. […] Finally, replacing the carboxylic acid to the bio-isostere amide yielded compounds 997-96 and 997-115, which dropped the potency 2- to 4-fold in comparison to their corresponding acids 997-74 and 997-114.\nTwo-electrode voltage-clamp recordings were performed in Xenopus laevis oocytes that were injected with mRNA to express recombinant rat GluN1/GluN2A, GluN1/GluN2B, GluN1/GluN2C, and GluN1/GluN2D. The recordings using unfertilized oocytes from Xenopus laevis were permitted by Emory University Institutional Animal Care and Use Committee (IACUC). An automatic injector (Nanoject II, Drummond Scientific) was used for cRNA injection using the pipettes filled with mineral oil. The cRNA that transcribed in vitro via the mMessage Machine kit (Ambion) was diluted with nuclease-free water, and then injected at GluN1/GluN2 with a ratio of 1:2. The oocytes were stored in Barth's solution that contained 88 mM NaCl, 5.0 mM Tris-HCl, 2.4 mM NaHCO3, 1.0 mM KCl, 0.84 mM MgSO4, 0.41 mM CaCl2, 0.33 mM Ca(NO3)2, 0.1 mg/ml gentamycin sulfate, 1.0 U/ml penicillin, and 1 μg/ml streptomycin at a pH of 7.4 and temperatures of 15-17° C. for two to five days before the two-electrode voltage-clamp recordings. When recording, the oocytes were placed in a perfusion chamber and continually washed with the recording solution comprised of 90 mM NaCl, 1.0 mM KCl, 0.50 mM BaCl2, 0.005 mM EDTA, and 10 mM HEPES at a pH of 7.4 and a temperature of 23° C. Glass electrodes with a tip resistance of 0.5 to 2.5 MΩ were obtained from thin-walled glass capillary tubes. Voltage electrodes and current electrodes were filled with 0.3 M and 3.0 M KCl, respectively. The recordings were executed with the oocytes membrane potential holding at −40 m V by an OC-725 amplifier (Warner Instrument Co). All compounds were dissolved in dimethyl sulfoxide (DMSO) as 20 mM stock solutions and future diluted to reach the desired concentration (0.05-0.5% (vol/vol) DMSO) in recording solution comprised of 30 μM glycine and 100 μM glutamate. Each compound was recorded 3-7 times in the least 4 oocytes from at least 2 different Xenopus laevis.\nTo evaluate the inhibition of compounds, the concentration-response curve was fitted with the average two-electrode voltage-clamp recording results with the equation\n[formula] • where IC50 is the concentration of compounds that inhibit half maximal of the current response and N is the Hill slope."}, "[6]": {"molecular_target": "NMDA receptors that contain GluN2B (Homo sapiens, UniProt Q05586+Q13224)", "conditions": "cited from earlier work"}, "GluN2C- and GluN2D": {"tested_on": "GluN2C- and GluN2D", "conditions": "GluN2C- and GluN2D-selective potentiator; read-out: EC50 (potentiation); cited from earlier work"}, "GluN2C subunit": {"molecular_target": "GluN2C subunit (Homo sapiens, UniProt Q14957)", "conditions": "read-out: EC50 (potentiation at GluN2C subunit); cited from earlier work"}}, "note": "pEC50: −log10 of the molar value.", "data": [{"smiles": "O=C(O)CC(F)(F)C(=O)N1N=C(c2ccccc2-c2cccc(F)c2)CC1c1ccc(Cl)cc1", "note": "(centres unmarked) [997-100, 4-(5-(4-chlorophenyl)-3-(3′-fluoro-[1,1′-biphenyl]-2-yl)-4,5-dihydro-1H-pyrazol-1-yl)-3,3-difluoro-4-oxobutanoic acid]", "values": [{"measurement": "GluN2A IC50", "setting": "[1]", "result": "NE (NE indicates less than 50% inhibition at 30 μM.)"}, {"measurement": "GluN2B IC50", "setting": "[2]", "result": "NE (NE indicates less than 50% inhibition at 30 μM.)"}, {"measurement": "GluN2C IC50", "setting": "[3]", "result": "NE (NE indicates less than 50% inhibition at 30 μM.)"}, {"measurement": "GluN2D IC50", "setting": "[4]", "result": "NE (NE indicates less than 50% inhibition at 30 μM.)"}, {"measurement": "activity at all receptors (GluN2A to GluN2D), in words", "setting": "[5]", "result": "lost the activity"}]}, {"smiles": "CC(C(O)c1ccc(O)cc1)N1CCC(Cc2ccccc2)CC1", "note": "(centres unmarked) [Ifenprodil]", "values": [{"measurement": "fold more potent at GluN2B than at GluN2A, GluN2C or GluN2D containing receptors", "setting": "[6]", "result": "approximately 200 fold"}]}, {"smiles": "O=C(/C=C/c1ccc(Cl)cc1)c1c(-c2cccc(F)c2)c2ccccc2[nH]c1=O", "note": "[997-71, (E)-3-[3-(4-chlorophenyl)acryloyl]-4-(3-fluorophenyl)quinolin-2(1H)-one]", "values": [{"measurement": "GluN2A IC50", "setting": "[1]", "result": "NE (NE indicates less than 50% inhibition at 30 μM.)"}, {"measurement": "GluN2B IC50", "setting": "[2]", "result": "NE (NE indicates less than 50% inhibition at 30 μM.)"}, {"measurement": "GluN2C IC50", "setting": "[3]", "result": "NE (NE indicates less than 50% inhibition at 30 μM.)"}, {"measurement": "GluN2D IC50", "setting": "[4]", "result": "NE (NE indicates less than 50% inhibition at 30 μM.)"}, {"measurement": "activity at all receptors (GluN2A to GluN2D), in words", "setting": "[5]", "result": "inactive"}]}, {"smiles": "COc1ccc(OCC2c3cc(OC)c(OC)cc3CCN2C(=O)c2cccc(Cl)c2)cc1", "note": "(centres unmarked) [CIQ, (3-chlorophenyl)(6,7-dimethoxy-1-((4-methoxyphenoxy)methyl)3,4-dihydroisoquinolin-2(1H)-yl)methanone]", "values": [{"measurement": "pEC50", "setting": "GluN2C- and GluN2D", "result": "5.22 to 5.52"}]}, {"smiles": "COC(=O)c1ccc(C2C(C(C)=O)=C(O)C(=O)N2CCc2c(C)[nH]c3ccccc23)cc1", "note": "(centres unmarked) [PYD-106]", "values": [{"measurement": "pEC50", "setting": "GluN2C subunit", "result": 4.89}]}, {"smiles": "O=C(O)CCC(=O)N1N=C(c2c(-c3ccc(Cl)cc3)c3ccccc3[nH]c2=O)CC1c1ccncc1Cl", "note": "(centres unmarked) [997-88, 4-(3-(4-(4-chlorophenyl)-2-oxo-1,2-dihydroquinolin-3-yl)-5-(3-chloropyridin-4-yl)-4,5-dihydro-1H-pyrazol-1-yl)-4-oxobutanoic acid]", "values": [{"measurement": "GluN2A IC50", "setting": "[1]", "result": "NE (NE indicates less than 50% inhibition at 30 μM.)"}, {"measurement": "GluN2B IC50", "setting": "[2]", "result": "NE (NE indicates less than 50% inhibition at 30 μM.)"}, {"measurement": "GluN2C IC50", "setting": "[3]", "result": "NE (NE indicates less than 50% inhibition at 30 μM.)"}, {"measurement": "GluN2D IC50", "setting": "[4]", "result": "NE (NE indicates less than 50% inhibition at 30 μM.)"}, {"measurement": "activity at all receptors (GluN2A to GluN2D), in words", "setting": "[5]", "result": "inactive"}]}, {"smiles": "O=C(O)CCC(=O)N1N=C(c2c(-c3ccc(Cl)cc3)c3ccccc3[nH]c2=O)CC1c1cnccn1", "note": "(centres unmarked) [997-80, 4-(3-(4-(4-chlorophenyl)-2-oxo-1,2-dihydroquinolin-3-yl)-5-(pyrazin-2-yl)-4,5-dihydro-1H-pyrazol-1-yl)-4-oxobutanoic acid]", "values": [{"measurement": "GluN2A IC50", "setting": "[1]", "result": "NE (NE indicates less than 50% inhibition at 30 μM.)"}, {"measurement": "GluN2B IC50", "setting": "[2]", "result": "NE (NE indicates less than 50% inhibition at 30 μM.)"}, {"measurement": "GluN2C IC50", "setting": "[3]", "result": "NE (NE indicates less than 50% inhibition at 30 μM.)"}, {"measurement": "GluN2D IC50", "setting": "[4]", "result": "NE (NE indicates less than 50% inhibition at 30 μM.)"}, {"measurement": "activity at all receptors (GluN2A to GluN2D), in words", "setting": "[5]", "result": "inactive"}]}, {"smiles": "O=C(O)CCC(=O)N1N=C(c2c(-c3ccc(Cl)cc3)c3ccccc3[nH]c2=O)CC1c1cccnc1", "note": "(centres unmarked) [997-83, 4-(3-(4-(4-chlorophenyl)-2-oxo-1,2-dihydroquinolin-3-yl)-5-(pyridin-3-yl)-4,5-dihydro-1H-pyrazol-1-yl)-4-oxobutanoic acid]", "values": [{"measurement": "GluN2A IC50", "setting": "[1]", "result": "NE (NE indicates less than 50% inhibition at 30 μM.)"}, {"measurement": "GluN2B IC50", "setting": "[2]", "result": "NE (NE indicates less than 50% inhibition at 30 μM.)"}, {"measurement": "GluN2C IC50", "setting": "[3]", "result": "NE (NE indicates less than 50% inhibition at 30 μM.)"}, {"measurement": "GluN2D IC50", "setting": "[4]", "result": "NE (NE indicates less than 50% inhibition at 30 μM.)"}, {"measurement": "activity at all receptors (GluN2A to GluN2D), in words", "setting": "[5]", "result": "inactive"}]}, {"smiles": "CCOC(=O)C(F)(F)CC(=O)N1N=C(c2c(-c3cccc(F)c3)c3ccccc3[nH]c2=O)CC1c1ccc(Cl)cc1", "note": "(centres unmarked) [997-65, Ethyl 4-{5-(4-chlorophenyl)-3-[4-(3-fluorophenyl)-2-oxo-1,2-dihydroquinolin-3-yl]-4,5-dihydro-1H-pyrazol-1-yl}-2,2-difluoro-4-oxobutanoate]", "values": [{"measurement": "GluN2A IC50", "setting": "[1]", "result": "NE (NE indicates less than 50% inhibition at 30 μM.)"}, {"measurement": "GluN2B IC50", "setting": "[2]", "result": "NE (NE indicates less than 50% inhibition at 30 μM.)"}, {"measurement": "GluN2C IC50", "setting": "[3]", "result": "NE (NE indicates less than 50% inhibition at 30 μM.)"}, {"measurement": "GluN2D IC50", "setting": "[4]", "result": "NE (NE indicates less than 50% inhibition at 30 μM.)"}, {"measurement": "activity at all receptors (GluN2A to GluN2D), in words", "setting": "[5]", "result": "no inhibition"}]}, {"smiles": "Cc1c(C2=NN(C(=O)CCC(=O)O)C(c3ccc(Cl)cc3)C2)c(=O)[nH]c2ccccc12", "note": "(centres unmarked) [997-76, 4-(5-(4-chlorophenyl)-3-(4-methyl-2-oxo-1,2-dihydroquinolin-3-yl)-4,5-dihydro-1H-pyrazol-1-yl)-4-oxobutanoic acid]", "values": [{"measurement": "GluN2A IC50", "setting": "[1]", "result": "NE (NE indicates less than 50% inhibition at 30 μM.)"}, {"measurement": "GluN2B IC50", "setting": "[2]", "result": "NE (NE indicates less than 50% inhibition at 30 μM.)"}, {"measurement": "GluN2C IC50", "setting": "[3]", "result": "NE (NE indicates less than 50% inhibition at 30 μM.)"}, {"measurement": "GluN2D IC50", "setting": "[4]", "result": "NE (NE indicates less than 50% inhibition at 30 μM.)"}, {"measurement": "activity at all receptors (GluN2A to GluN2D), in words", "setting": "[5]", "result": "inactive"}]}]}
